According to patent publication US20230145729A1, “INDOLE DITERPENE BIOSYNTHESIS” (priority 2020, published 2023):

Experiments:
[1] = system: Porina (Wiseana copularis) larvae; assay: Porina bioassay of purified epoxy-janthitrems (Example 6); format: in vivo; details: for inhibition of feeding at the highest concentration: highest concentration (10 μg/g wet weight); for Mortality of larvae: data not shown; for average diet consumption with increasing concentration: 1, 2.5, 10 μg/g wet weight, 21 days
Experimental: The porina bioassay was carried out as described in Example 4, with the following variations:
15 replicates were used per treatment;
the age of the larvae at the start of the experiment was 10 weeks;
diet was made weekly and replaced after 4 days within each week;
the average weight of diet consumed by the larvae, larval weight gain/loss (data not shown), and larval mortality (data not shown) was determined;
three concentrations of purified epoxy-janthitrems were used (1, 2.5, 10 μg/g wet weight) instead of four; and
an average daily diet consumption (mg/larva) across the 21 days of the trial was determined.

[2] = system: mice (Swiss, female); assay: Mouse tremor bioassay of purified epoxy-janthitrems (Example 7); format: in vivo; details: ip; for peak tremor score (comparison among epoxy-janthitrems): EJ I 13.5, EJ III 17.2, EJ triol 16.2 mg/kg
Experimental: Epoxy-janthitrem I, Epoxy-janthitrem II, Epoxy-janthitrem III, Epoxy-janthitrem IV, and Epoxy-janthitriol, were administered by intraperitoneal injection as DMSO/water solutions (9:1, 50 μL) into mice (Swiss, female, weight 25+3g). Control mice were injected with the solvent alone (data not shown). Groups of four mice were used for each treatment group. All animal manipulations were approved, and tremor score was calculated, as described above in Example 5.
The dosage rates were informed by the experiment described in Example 5 above, with dose rates as follows: epoxy-janthitrem I (EJ I, 13.5 mg/kg), epoxy-janthitrem II (EJ II, 14.2 mg/kg), epoxy-janthitrem III (EJ III, 17.2 mg/kg), epoxy-janthitrem IV (EJ IV, 16.5 mg/kg), epoxy-janthitriol (EJ triol, 16.2 mg/kg). Tremors were measured regularly until the mice had completely recovered.

[3] = system: mice (Swiss, female); assay: Mouse tremor bioassay (Example 5); format: in vivo
Experimental: Epoxy-janthitrem I, lolitrem B, and the related indole-diterpene, paxilline were administered by intraperitoneal injection as DMSO/water solutions (9:1, 50 μL) into mice (Swiss, female, weight 25+3 g). Control mice were injected with the solvent alone. Dose rates which induce an acceptable maximum tremor response are well established for lolitrem B (2 mg/kg; Gallagher and Hawkes, 1986) and paxilline (6 mg/kg; Miles, et al., 1992).
Groups of four mice were used for each treatment group. All animal manipulations were approved by the
AgResearch Ruakura (Hamilton) Animal Ethics Committee established under the Animal Protection (code of ethical conduct) Regulations Act, 1987 (New Zealand). Tremor score was rated 1-5 on the basis of a visual rating scale using well established protocols (Gallagher and Hawkes, 1985; Gallagher and Hawkes, 1986). Tremors were measured regularly until the mice had completely recovered.

[4] = system: Porina (Wiseana cervinata) larvae; assay: Porina bioassay of purified epoxy-janthitrem I in semi-synthetic diet (Example 4); format: in vivo
Experimental: Six week-old porina (W. cervinata) larvae reared from eggs (Popay, 2001) were starved overnight and then weighed individually. Larvae were assigned to replicates so that all larvae within a replicate were of a similar weight but randomised amongst treatments. The 20 replicate larvae per treatment were each placed in specimen containers (75 mL) half filled with commercially available fine bark chips.
(§1) An agar-based semi-synthetic diet (Popay, 2001) without antimicrobials was prepared and epoxy-janthitrem I dissolved in 100 μL DMSO was added to 10 g of diet. Four concentrations of epoxy-janthitrem I were prepared (1, 2.5, 5, 10 μg/g wet weight) along with a DMSO control. Discs of diet (7 mm diam.) were taken and placed on top of the bark and the lids were replaced. The experiment was kept in the dark at 15° C. After 24 h, each diet was visually scored for feeding on a scale of 0-10 where 0=no feeding and 10=all diet consumed. The amount of webbing present was also scored on a scale of 0-5. The diet disc was replaced daily with fresh diet for 7 days. Each time diet was replaced, samples of the diet that the porina had fed on were taken as well as a sample of the fresh diet to analyse for epoxy-janthitrem I. Porina were reweighed at the completion of the trial.
The feeding score data were normalised by square root transformation before a repeated measures analysis was carried out using REML with treatment and date as factors. The daily webbing score and weight change of larvae over 7 days were analysed using ANOVA, blocked by replicate, to make pairwise comparisons for each concentration with the solvent control at each date.

[5] = Analysis of porina diets for epoxy-janthitrem I (stability in diet); format: physicochemical; details: average
Experimental: as §1

CC(=O)O[C@@H]1C(C(C)(C)OCC=C(C)C)OC2CC[C@]3(C)[C@@]4(C)c5[nH]c6cc7c(cc6c5CC4CC[C@@]3(O)C23O[C@@H]13)CC1C7=CC(C)(C)OC1(C)C (stereo partly drawn) [epoxy-janthitrem IV]
inhibition of feeding at the highest concentration [1]: little inhibition of feeding

CC(C)=CC1O[C@@H]2C(OC3CC[C@]4(C)[C@@]5(C)c6[nH]c7cc8c(cc7c6CC5CC[C@@]4(O)C34O[C@@H]24)CC2C8=CC(C)(C)OC2(C)C)C(C)(C)O1 (stereo partly drawn) [epoxy-janthitrem II]
Weight change of larvae ([1]; 2.5 μg/g): net weigt loss | Mortality of larvae ([1]; 2.5 μg/g): high | Mortality of larvae ([1]; 10 μg/g): high | average diet consumption with increasing concentration [1]: decreased with increasing epoxy-janthitrem concentration | time of peak tremorgenicity ([2]; EJ I 13.5, EJ II 14.2, EJ III 17.2, EJ IV 16.5, EJ triol 16.2 mg/kg): 9 hours post administration

CC(C)(O)C1OC2CC[C@@]3(C)[C@@](O)(CCC4Cc5c([nH]c6ccccc56)[C@@]43C)C2=CC1=O (stereo partly drawn) [paxilline, Paxilline]
time of tremor peak ([3]; ip, paxilline 6 mg/kg): 30 mins post-dosing | time to complete recovery ([3]; ip, paxilline 6 mg/kg): ≤ 6 hours post-dosing

CC(C)=CCOC(C)(C)C1OC2CC[C@]3(C)[C@@]4(C)c5[nH]c6cc7c(cc6c5CC4CC[C@@]3(O)C23O[C@H]3[C@@H]1O)CC1C7=CC(C)(C)OC1(C)C (stereo partly drawn) [epoxy-janthitrem III]
inhibition of feeding at the highest concentration [1]: little inhibition of feeding | peak tremor score (comparison among epoxy-janthitrems) [2]: lowest peak tremor scores

CC1(C)C=C2c3cc4[nH]c5c(c4cc3CC2C(C)(C)O1)CC1CC[C@@]2(O)C34O[C@H]3[C@H](O)C(C(C)(C)O)OC4CC[C@]2(C)[C@@]51C (stereo partly drawn) [epoxy-janthitriol]
average diet consumption with increasing concentration [1]: decreased with increasing epoxy-janthitrem concentration | peak tremor score (comparison among epoxy-janthitrems) [2]: lowest peak tremor scores

CC(=O)O[C@@H]1C(C(C)(C)O)OC2CC[C@]3(C)[C@@]4(C)c5[nH]c6cc7c(cc6c5CC4CC[C@@]3(O)C23O[C@@H]13)CC1C7=CC(C)(C)OC1(C)C (stereo partly drawn) [epoxy-janthitrem I]
Weight change of larvae ([4]; 1-10 ppm in diet, 7 days): continued to decline with increasing concentration | % gain in weight ([4]; 1 ppm in diet, P<0.05 vs solvent control): 51.1% | feeding score vs solvent control ([4]; 1 ppm in diet, apart from the first day): did not differ significantly from the solvent control | feeding score vs solvent control ([4]; 2.5 ppm in diet): consistent reduction in feeding score for the first 6 days | feeding score vs solvent control ([4]; 5 ppm in diet, entire period of the bioassay): feeding was strongly inhibited | feeding score vs solvent control ([4]; 10 ppm in diet, entire period of the bioassay): feeding was strongly inhibited | Weight gain of larvae relative to the solvent control ([4]; all concentrations except 1 ppm): significantly reduced | in planta concentration that will reliably reduce larval feeding ([4]; extrapolated from dry weight of diet (about ten times wet weight concentrations)): ≥ 25 ppm | Survival of larvae during the experiment ([4]; treatments containing epoxy-janthitrem I (1, 2.5, 5, 10 μg/g wet weight), 7 days): 100% | concentration of epoxy-janthitrem I in diet relative to expected ([5]; analysed at time zero): 98% | epoxy-janthitrem I remaining in diet, % of the starting concentration ([5]; diets after 24 h): 81% | tremor response ([3]; 8 mg/kg intraperitoneal): only a low tremor response | Weight change of larvae ([1]; 2.5 μg/g): net weigt loss | Mortality of larvae ([1]; 2.5 μg/g): high | Mortality of larvae ([1]; 10 μg/g): high | average diet consumption with increasing concentration [1]: decreased with increasing epoxy-janthitrem concentration | effect on consumption at the lowest dose ([1]; lowest dose (1 μg/g wet weight)): substantial inhibitory effect | peak tremor score (comparison among epoxy-janthitrems) [2]: significantly greater than that observed for any of the other epoxy-janthitrems
